Test results published in patent US20110319392A1, “Thiazole Sulfonamide And Oxazole Sulfonamide Kinase Inhibitors” (priority 2009, published 2011).
Structures can show the parent of a compound that is named as a salt.

Columns and labels:
[1] = target: B-Raf (Homo sapiens, UniProt P15056); experiment: B-Raf Accelerated MEK ATPase assay (BRAMA), Method A or B; format: biochemical
Method in brief: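 ADP production, initiated by catalytic activated Raf with unphosphorylated MEK, is followed by NADH oxidation through a PK/LDH coupled system. Method B differs from the kinetic Method A by a single end-point read and 150 nM final MEK.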

[2] = system: HN5 tumor cells; experiment: Cell growth inhibition assay (CellTiter-Glo), HN5; format: cell-based, Human; conditions: 3 days incubation
Protocol: (§1) Human breast tumor cells (BT474) were cultured in RPMI (Mediatech […]), containing 10% FBS (JRH Biosciences 12176) and 1% penicillin-streptomycin (Invitrogen 15140). Human head and neck tumor cells (HN5) were cultured in high glucose DMEM (Mediatech 50-013-PB) containing 10% FBS and 1% penicillin-streptomycin. Human colon tumor cells (Colo205) were cultured in RPMI (Mediatech 50-020-PB) containing 10% FBS and 1% penicillin-streptomycin. Human melanoma cancer cells (SK-MEL-28) were cultured in EMEM with nonessential amino acids (Mediatech 50-011-PB) containing 10% FBS, 1% sodium pyruvate (JT Baker 3354-04), and 1% penicillin-streptomycin. Human melanoma cancer cells (A375P F11s) were cultured in RPMI (Mediatech 50-020-PB) containing 10% FBS, 1% sodium pyruvate, and 1% penicillin-streptomycin. Human colon cancer cells (HT-29) were cultured in high glucose DMEM (Mediatech 50-013-PB) containing 10% FBS and 1% penicillin-streptomycin. Human melanoma cancer cells (SK-MEL-3) were cultured in McCoy's 5A (50-025-PB) containing 15% FBS, and 1% penicillin-streptomycin. All cell lines were maintained at 37° C. in a humidified 5% CO2, 95% air incubator. Cells were harvested using trypsin/EDTA (Invitrogen 25200), counted using a haemocytometer, and plated. For 96-well assays (using white full-area NUNC plates cat. #136102), cells were plated in 105 μL at the following densities (cells/well): HNS, 500; Colo 205, 500; SK-MEL-28, 500; A375P F11s, 500; HT-29, 500; SK-MEL-3, 500; and BT474, 3000. For 384-well assays (white full-area NUNC plates, cat. #781080), cells were plated in 48 μL at the following densities (cells/well): HNS, 500; Colo205, 500; SK-MEL-28, 500; A375P F11s, 500; HT-29, 500; SK-MEL-3, 500; and BT474, 2000.
(§2) The next day, compounds were diluted as follow: For 96-well assays, 13.5 μL of compound in DMSO were diluted using nine (9) serial 1:3 dilutions of 4.5 μL in 9 of DMSO. Medium (270 μL/well of RPMI with 10% FBS and 1% penicillin-streptomycin) was added to the plates. Aliquots (7 μL) were added to cells in the final assay giving a final DMSO concentration of 0.2%. For 384-well assays, 15 μL of compound in DMSO were diluted using nine (9) serial 1:3 dilutions of 5 μL in 10 μL of DMSO, followed by a further dilution of 5 μL of compound with 95 μL of medium, of which 2 μL were added to cells in the final assay giving a final DMSO concentration of 0.2%. Cells were incubated at 37° C., 5% CO2 for 3 days.
(§3) Total ATP was measured (as a surrogate estimate of cell number) using CellTiter-Glo® reagent (Promega G7571). Briefly, plates were removed from the incubator and allowed to equilibrate to room temperature for 30 minutes. CellTiter-Glo® (25 μL or 55 μL for 384-well or 96-well assays, respectively) reagent was added to each well and plates were shaken on an orbital plate shaker for 2 minutes. Plates were incubated without shaking for a further 30 minutes and read on an LJL Analyst GT reader in luminometer mode with an integration time of 0.5 seconds per well. Percent inhibition of cell growth was calculated relative to DMSO vehicle-treated control wells. Concentration of compound required to give 50% inhibition of vehicle-treated control cell growth (IC50) was interpolated using a 4-parameter fit for determining IC50 using the following equation: Y=A +((B−A)/(1+((C/X)̂D))) where […].

[3] = system: BT474 tumor cells; experiment: Cell growth inhibition assay (CellTiter-Glo), BT474; format: cell-based, Human; conditions: 3 days incubation
Protocol: as §1, §2, §3

[4] = system: Colo205 tumor cells; experiment: Cell growth inhibition assay (CellTiter-Glo), Colo205; format: cell-based, Human; conditions: Homo sapiens, COLO 205, 72 h; 3 days incubation
Method in brief: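 Readout was CellTiter-Glo luminescence (total ATP, surrogate for cell number) after 3-day exposure at 37° C, 5% CO2 to 1:3 serial compound dilutions in 0.2% final DMSO. Seeding was 500 cells/well; IC50 derived by 4-parameter fit relative to vehicle-treated wells.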

[5] = system: A375P F11s tumor cells; experiment: Cell growth inhibition assay (CellTiter-Glo), A375P F11s; format: cell-based, Human; conditions: for IC50: Homo sapiens
Protocol: as §1, §2, §3

[6] = Method B: final MEK 150 nM, single end point read

B-Raf, sequence (P15056 whole entry): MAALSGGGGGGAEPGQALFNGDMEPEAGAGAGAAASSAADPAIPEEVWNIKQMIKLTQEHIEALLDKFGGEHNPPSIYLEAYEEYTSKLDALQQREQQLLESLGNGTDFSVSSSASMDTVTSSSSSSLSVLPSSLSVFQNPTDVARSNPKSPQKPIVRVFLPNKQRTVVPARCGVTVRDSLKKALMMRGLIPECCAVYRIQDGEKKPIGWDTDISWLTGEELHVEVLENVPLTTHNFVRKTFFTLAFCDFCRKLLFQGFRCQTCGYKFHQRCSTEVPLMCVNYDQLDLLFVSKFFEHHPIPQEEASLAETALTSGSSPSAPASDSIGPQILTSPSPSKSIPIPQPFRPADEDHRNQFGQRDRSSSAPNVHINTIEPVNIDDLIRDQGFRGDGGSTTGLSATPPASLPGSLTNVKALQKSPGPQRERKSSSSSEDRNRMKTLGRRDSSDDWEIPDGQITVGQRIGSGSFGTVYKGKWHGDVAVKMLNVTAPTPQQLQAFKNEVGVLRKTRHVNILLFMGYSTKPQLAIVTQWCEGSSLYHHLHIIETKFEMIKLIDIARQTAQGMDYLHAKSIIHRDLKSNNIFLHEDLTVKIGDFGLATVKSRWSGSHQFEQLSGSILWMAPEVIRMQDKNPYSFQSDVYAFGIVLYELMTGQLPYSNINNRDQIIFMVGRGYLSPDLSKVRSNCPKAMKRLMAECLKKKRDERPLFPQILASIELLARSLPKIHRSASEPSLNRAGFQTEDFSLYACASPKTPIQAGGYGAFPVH

| SMILES | IC50 ([1]; Method A) [nM] | IC50 [2] [nM] | IC50 [3] [nM] | IC50 [4] [nM] | Activity in A375P F11s Tumor Cells [5] | IC50 ([2]; Homo sapiens, 72 h) [nM] | IC50 ([3]; Homo sapiens, BT-474, 72 h) [nM] | IC50 [5] [nM] | IC50 [1, 6] [nM] |
| --- | --- | --- | --- | --- | --- | --- | --- | --- | --- |
| CCNc1nc(-c2cccc(NS(=O)(=O)c3ccccc3)c2)c(-c2ccnc(Nc3ccc(OCCN4CCCC4)c(F)c3)n2)s1 [Example 1, N-(3-(2-(Ethylamino)-5-{2-[(3-fluoro-4-[[2-(1-pyrrolidinyl)ethyl]oxy}phenyl)amino]-4-pyrimidinyl}-1,3-thiazol-4-yl)phenyl]benzenesulfonamide] | 100 to 1000 | 100 to 1000 | 100 to 1000 | 100 to 1000 | ++ (activity of between 100 nM and 1 μM in A375P F11s tumor cells) | – | – | – | – |
| COCCN1CCN(c2ccc(Nc3nccc(-c4sc(C(C)C)nc4-c4cccc(NS(=O)(=O)c5ccccc5)c4)n3)cn2)CC1 [Example 6, N-[3-(2-(1-Methylethyl)-5-{2-[(6-{4-[2-(methyloxy)ethyl]-1-piperazinyl}-3-pyridinyl)amino]-4-pyrimidinyl}-1,3-thiazol-4-yl)phenyl]benzenesulfonamide] | < 100 | – | – | < 100 | – | 100 to 1000 | > 1000 | < 100 | – |
| CC(C)c1nc(-c2cccc(NS(=O)(=O)c3ccccc3)c2)c(-c2ccnc(Nc3ccc(N4CCOCC4)nc3)n2)s1 [Example 8, N-{3-[2-(1-Methylethyl)-5-(2-{[6-(4-morpholinyl)-3-pyridinyl]amino}-4-pyrimidinyl)-1,3-thiazol-4-yl]phenyl}benzenesulfonamide hydrochloride] | – | – | – | < 100 | – | > 1000 | > 1000 | < 100 | < 100 |
| COc1ccc(Nc2nccc(-c3sc(C(C)C)nc3-c3cccc(NS(=O)(=O)c4ccccc4)c3)n2)cc1N1CCN(CCC#N)CC1 [Example 9, N-{3-[5-(2-{[3-[4-(2-Cyanoethyl)-1-piperazinyl]-4-(methyloxy)phenyl]amino}-4-pyrimidinyl)-2-(1-methylethyl)-1,3-thiazol-4-yl]phenyl}benzenesulfonamide] | – | – | – | < 100 | – | 100 to 1000 | > 1000 | < 100 | < 100 |
| CC(=O)N1CCN(c2ccc(Nc3nccc(-c4sc(C(C)C)nc4-c4cccc(NS(=O)(=O)c5ccc(F)cc5)c4)n3)cn2)CC1 [Example 10, N-{3-[5-(2-{[6-(4-Acetyl-1-piperazinyl)-3-pyridinyl]amino}-4-pyrimidinyl)-2-(1-methylethyl)-1,3-thiazol-4-yl]phenyl}-4-fluorobenzenesulfonamide] | – | – | – | < 100 | – | > 1000 | > 1000 | < 100 | < 100 |
| CC(=O)N1CCN(c2ccc(Nc3nccc(-c4sc(C(C)C)nc4-c4cccc(NS(=O)(=O)c5cccc(F)c5)c4)n3)cn2)CC1 [Example 11, N-{3-[5-(2-{[6-(4-Acetyl-1-piperazinyl)-3-pyridinyl]amino}-4-pyrimidinyl)-2-(1-methylethyl)-1,3-thiazol-4-yl]phenyl}-3-fluorobenzenesulfonamide] | – | – | – | < 100 | – | > 1000 | > 1000 | < 100 | < 100 |
| CC(=O)N1CCN(c2ccc(Nc3nccc(-c4sc(C(C)C)nc4-c4cccc(NS(=O)(=O)c5ccccc5F)c4)n3)cn2)CC1 [Example 12, N-{3-[5-(2-{[6-(4-Acetyl-1-piperazinyl)-3-pyridinyl]amino}-4-pyrimidinyl)-2-(1-methylethyl)-1,3-thiazol-4-yl]phenyl}-2-fluorobenzenesulfonamide] | – | – | – | < 100 | – | 100 to 1000 | > 1000 | < 100 | < 100 |
| CC(C)c1nc(-c2cccc(NS(=O)(=O)c3c(F)cccc3F)c2)c(-c2ccnc(Nc3ccc(OC4CCN(CCS(C)(=O)=O)CC4)c(F)c3)n2)s1 [Example 13, 2,6-Difluoro-N-{3-[5-(2-{[3-fluoro-4-({1-[2-(methylsulfonyl)ethyl]-4-piperidinyl}oxy)phenyl]amino}-4-pyrimidinyl)-2-(1-methylethyl)-1,3-thiazol-4-yl]phenyl}benzenesulfonamide hydrochloride] | – | – | – | < 100 | – | 100 to 1000 | > 1000 | < 100 | < 100 |
| CC(C)c1nc(-c2cccc(NS(=O)(=O)c3c(F)cccc3F)c2)c(-c2ccnc(Nc3ccc(N4CCOCC4)c(C(=O)O)c3)n2)s1 [Example 14, 5-({4-[4-(3-{[(2,6-Difluorophenyl)sulfonyl]amino}phenyl)-2-(1-methylethyl)-1,3-thiazol-5-yl]-2-pyrimidinyl}amino)-2-(4-morpholinyl)benzoic acid] | – | – | – | < 100 | – | > 1000 | > 1000 | < 100 | < 100 |
| CC(C)c1nc(-c2cccc(NS(=O)(=O)c3c(F)cccc3F)c2)c(-c2ccnc(Nc3ccc(N4CCN5CCOC[C@H]5C4)nc3)n2)s1 [Example 15] | – | – | – | < 100 | – | 100 to 1000 | > 1000 | < 100 | < 100 |
| CC(C)c1nc(-c2cccc(NS(=O)(=O)c3c(F)cccc3F)c2)c(-c2ccnc(Nc3ccc(N4CCN(CCS(C)(=O)=O)CC4)c(F)c3)n2)s1 [Example 16, 2,6-Difluoro-N-{3-[5-{2-[(3-fluoro-4-{4-[2-(methylsulfonyl)ethyl]-1-piperazinyl}phenyl)amino]-4-pyrimidinyl}-2-(1-methylethyl)-1,3-thiazol-4-yl]ohenyl}benzenesulfonamide hydrochloride] | – | – | – | < 100 | – | 100 to 1000 | > 1000 | < 100 | < 100 |
| CC(C)c1nc(-c2cccc(NS(=O)(=O)c3c(F)cccc3F)c2)c(-c2ccnc(Nc3ccc(N4CCOCC4)nc3)n2)s1 [Example 17, 2,6-Difluoro-N-{3-[2-(1-methylethyl)-5-(2-{[6-(4-morpholinyl)-3-pyridinyl]amino}-4-pyrimidinyl)-1,3-thiazol-4-yl]phenyl}benzenesulfonamide] | – | – | – | < 100 | – | 100 to 1000 | > 1000 | < 100 | < 100 |
| COc1ccc(Nc2nccc(-c3sc(C(C)C)nc3-c3cccc(NS(=O)(=O)c4c(F)cccc4F)c3)n2)cc1N(C)C [Example 18, N-{3-[5-(2-{[3-(Dimethylamino)-4-(methyloxy)phenyl]amino}-4-pyrimidinyl)-2-(1-methylethyl)-1,3-thiazol-4-yl]phenyl}-2,6-difluorobenzenesulfonamide trifluoroacetate] | – | – | – | < 100 | – | 100 to 1000 | > 1000 | < 100 | < 100 |
| COc1cc(N2CCN(CCS(C)(=O)=O)CC2)c(C)cc1Nc1nccc(-c2sc(C(C)C)nc2-c2cccc(NS(=O)(=O)c3c(F)cccc3F)c2)n1 [Example 19] | – | – | – | < 100 | – | > 1000 | > 1000 | 100 to 1000 | < 100 |
